According to patent US9598463B2, “Mucin hypersecretion inhibitors and methods of use” (BIOMARCK PHARMACEUTICALS, LTD., priority 2005, dated 2017):
Marks after values point to notes of the source that are not given here. Where a SMILES comes first, the peptide text is derived from it. The star is where a group is joined. Myristoyl = CCCCCCCCCCCCCC(=O)*

Legend:
[1] = Qualitative solubility of test peptides in 0.5 N saline; type: physicochemical; conditions: pH 6.5, 20° C. (table title)
Description: Various test peptides (1 to 5 mg each) were weighed out accurately in individual 2 mL screw cap glass vials and aliquots of 25 μL of 0.5 N saline, pH 6.5, were added at 25° C. and ambient pressure. The solubility was evaluated visually. If the test peptide dissolves completely with the first aliquot of saline, its solubility was calculated and designated as more than the calculated amount. […] Similarly, if 1.7 mg of a test peptide fails to dissolve in 1.7 mL of 0.5 N saline, its solubility is stated as <1.0 mg/mL.

[2] = Stability of test peptides in human BALF (LC/MS/MS, first order half-life); type: in vitro ADME; conditions: human BALF from COPD patients
Description: (§1) Various test peptides in human plasma, human BALF, and CF patient mucus were analyzed to determine the susceptability of the test peptide to proteolysis in the biological fluids. […] The samples were analyzed either on the same day as received or stored at −20° C. and analyzed within the following two days.
Samples of BALF collected from COPD patients were obtained and frozen. The BALF samples were thawed, mixed together and centrifuged at 10,000×g for 10 min at 4-8° C. The supernatant (0.9 mL) was spiked with 0.1 mL of 0.5 mg/mL solution of the peptide in 75 mM sodium acetate buffer at pH 7.0 and processed and analyzed as described above.
(§2) All samples were analyzed using LC/MS/MS (MDS/SCIEX, API 4000 Model). Chromatography was performed using a Phenomenex Luna C18 column, while mass spectrometry was performed using positive ion electrospray ionization.
(§3) Calibration standards were analyzed by LCMS at concentrations of 0.100 μg/mL, 1.00 μg/mL, 10.0 μg/mL, and 100 μg/mL for each peptide, with the exception of the calibration standards for peptides myr-PEPTIDE 106, PEPTIDE 106, PEPTIDE 106-NH2, PEPTIDE 106, and cyclic peptide, cyc-PEPTIDE 106, in human mucus, which were analyzed at concentrations of 0.100 μg/mL, 1.00 μg/mL, 10.0 μg/mL, and 75 μg/mL. Standards were prepared in 1% human BALF, plasma, or mucus in 50/50 water/acetonitrile mixture containing 0.2% formic acid. The instrument response values for each set of standards were fit using a 1/(concentration)^2 linear least-squares line. Sample concentrations were calculated using the slope and intercept of this line. Concentrations outside of the calibration range were determined by extrapolating the calibration curve.
Duplicate calibration standards were analyzed at a concentration of 50 μg/mL for each peptide. The instrument response values for each set of standards were fit through an intercept of 0 using an unweighted, linear least-squares line. Sample concentrations were calculated using the slope and intercept of this line.
For the analysis of peptide concentration in BALF samples, one 50 μg/mL calibration standard prepared in a mixture of BALF, water, acetonitrile, and formic acid was analyzed with each sample set.
(§4) Watson fits the log transformed data with a least-squares line to determine parameters such as Cmax (maximum concentration), intercept, rate constant, slope, and T1/2 (half-life). The resulting kinetic parameters were based on the linear fit, not the actual concentration values.
(§5) Time-zero calibration standards in solution were not included as part of the kinetic profiles.

[3] = test system: methacholine-induced mucin hypersecretion; test: Methacholine-induced mucin hypersecretion in ovalbumin-sensitized mouse model of asthma, BAL mucin ELISA (Balb/C mice); type: in vivo; conditions: for Mucin Secretion % control: peptides at 100 μM; for Mucin Secretion % of control: Table IV
Text: Experiments were designed to test whether or not the MANS peptide and other test peptides related thereto inhibit hypersecretion of mucin in murine airway in vivo. The ovalbumin-sensitized mouse model of allergic inflammation and asthma used in these studies was as described by Singer et al. (2004), supra. As a negative control, a control peptide containing an N-terminal myristoyl group and the same amino acids as MANS peptide but arranged in random order (i.e., the random N-terminal sequence, RNS, myristoyl-peptide 232) was tested alongside the proposed active peptides. BP2 mice, aged 6-8 wks, were immunized subcutaneously twice at weekly intervals with 1 μg of ovalbumin. After 14 days of sensitization, the animals were exposed to aerosolized ovalbumin, which causes a pronounced goblet cell hyperplasia after 72 hours. At the 72 hr time point, the secretagogue, methacholine ([…]) was delivered using a Buxco system nebulizer providing a fine aerosol for 90 seconds. Fifteen min prior to the secretagogue challenge, 50 μL of the test peptide, at 3 different concentrations (10 μM, 100 μM, or 140 μM), was administered by intratracheal route. The RNS peptide was tested at the highest dose level only (50 μL of 140 μM solution). […] Each experiment was carried out in 6 mice per point, and each set of experiments was repeated 3 times. To test strain-to-strain variations, the above experiment was repeated in Balb/C mice under similar protocol. Both stimulated and unstimulated mucin secretion, in mice treated with […] sodium acetate (data not shown), were identical to saline control. Following the methacholine challenge, the animals were sacrificed and bronchoalveolar lavage (BAL) performed on 6 animals per group for analysis of secreted mucin.
Mice were sacrificed by cervical dislocation, followed by rapid exposure of the trachea and insertion of a cannula through a small incision. Bronchoalveolar lavage (BAL) fluid was collected with 0.5 ml followed by 3×1 ml PBS containing PMSF (5 mM), EDTA (5 mM), and DTT (5 mM). BAL fluid was separated into cell-free and cell fractions via brief centrifugation prior to any analyses being performed. The cell-free supernatants were analyzed for the presence of mucin via an ELISA method using anti-mucin antibodies shown to react with mouse mucin. Specifically, a mouse anti-MUC5AC antibody that recognizes the carbohydrate portion of secreted mucin was used in these assays. Data generated from each BAL sample were normalized to total protein as determined by Bradford assay. Mucin content was expressed as the value obtained with the anti-mucin antibody minus that obtained with the non-immune control antibody. All ELISA data were statistically examined using a one-way ANOVA.

[4] = Stability of test peptides in human plasma (LC/MS/MS, first order half-life); type: in vitro ADME; conditions: human plasma, 37° C., 1st experiment, read-out: Plasma t1/2 (1st exp.) (converted)
Description: as §1
Fresh human blood samples were collected in citrate buffered vacuutrainers (in absence of EDTA or heparin). Red blood cells (RBC) were removed by centrifugation of the blood at 4000×g for 10 min at 4° C. Plasma aliquots (0.9 mL) were then spiked with 0.1 mL of 0.5 mg/mL solution of the test peptide in 75 mM sodium acetate buffer at pH 7.0 and incubated in a water bath maintained at 37° C. Duplicate aliquots of 10 μL, were withdrawn at 5, 15, 30, 60, and 180 minutes intervals and immediately “quenched” with 990 μL of a solution consisting of 50% acetonitrile+50% water containing 0.2% formic acid. The samples were then subjected to liquid chromatography-mass spectrometry (LCMS) analysis.
as §2
as §3, with “curve. […]” for “curve.”
For the analysis of peptide concentration in plasma, duplicate calibration standards were analyzed at a concentration of 25 μg/mL and 50 μg/mL for each peptide. The instrument response values for each set of standards were fit through an intercept of 0 using an unweighted, linear least-squares line. Sample concentrations were calculated using the slope and intercept of this line. Concentrations outside of the calibration range were determined by extrapolating the calibration curve.
as §4, §5

[5] = Table II, 50 μL intratracheal 15 min before methacholine
[6] = cerebrospinal or other body fluid, 1st experiment, read-out: BALF t1/2 (1st exp.) (converted)
[7] = cerebrospinal or other body fluid, 2nd experiment, read-out: BALF t1/2 (2nd exp.) (converted)

Molecule | solubility [1] | Mucin Secretion % control [3, 5] | Mucin Secretion % control ([3]; Table III) | other results
CCCCCCCCCCCCCC(=O)NCC(=O)N[C@@H](C)C(=O)N[C@@H](CCC(N)=O)C(=O)N[C@@H](Cc1ccccc1)C(=O)N[C@@H](CO)C(=O)N[C@@H](CCCCN)C(=O)N[C@H](C(=O)N[C@@H](CCCCN)C(=O)N[C@@H](C)C(=O)N[C@@H](CCCCN)C(=O)NCC(=O)N[C@@H](CCC(=O)O)C(=O)O)[C@@H](C)O [myr-peptide 234] (Myristoyl-GAQFSKTKAKGE-OH) | > 3000 µg/mL | 8 % control | – | half-life ([2]; 1st experiment, read-out: BALF t1/2 (1st exp.) (converted)): 64.8 min
Ac-GAQFSKTAAKGE-NH2 [Ac-peptide 79-NH2] | > 60000 µg/mL | – | – | half-life [4]: 158 min
H-GAQASKTAAKGE-OH [peptide 237, GAQASKTAAKGE] | > 80000 µg/mL | – | – | half-life [4]: 29.4 min; Mucin Secretion % of control ([3]; peptide 10 μM): 67*+ % of control; Mucin Secretion % of control ([3]; peptide 100 μM): 8** % of control
CCCCCCCCCCCCCC(=O)NCC(=O)N[C@@H](C)C(=O)N[C@@H](CCC(N)=O)C(=O)N[C@@H](Cc1ccccc1)C(=O)N[C@@H](CO)C(=O)N[C@@H](CCCCN)C(=O)N[C@H](C(=O)N[C@@H](C)C(=O)N[C@@H](C)C(=O)N[C@@H](CCCCN)C(=O)NCC(=O)N[C@@H](CCC(=O)O)C(=O)N[C@@H](C)C(=O)N[C@@H](C)C(=O)N[C@@H](C)C(=O)N[C@@H](CCC(=O)O)C(=O)O)[C@@H](C)O [myr-peptide 37] (Myristoyl-GAQFSKTAAKGEAAAE-OH) | > 2000 µg/mL | – | 35** % control | –
H-GAQFSKTAAKGE-OH [peptide 79, GAQFSKTAAKGE] | > 60000 µg/mL | 10 % control | – | –
CCCCCCCCCCCCCC(=O)N[C@@H](CO)C(=O)N[C@@H](CCCCN)C(=O)N[C@H](C(=O)N[C@@H](C)C(=O)N[C@@H](C)C(=O)N[C@@H](CCCCN)C(=O)NCC(=O)N[C@@H](CCC(=O)O)C(=O)N[C@@H](C)C(=O)N[C@@H](C)C(=O)N[C@@H](C)C(=O)N[C@@H](CCC(=O)O)C(=O)N[C@@H](CCCNC(=N)N)C(=O)N1CCC[C@H]1C(=O)NCC(=O)N[C@@H](CCC(=O)O)C(=O)N[C@@H](C)C(=O)N[C@@H](C)C(=O)N[C@H](C(=O)N[C@@H](C)C(=O)O)C(C)C)[C@@H](C)O [myr-peptide 15] (Myristoyl-SKTAAKGEAAAERPGEAAVA-OH) | > 80000 µg/mL | – | 38* % control | –
CCCCCCCCCCCCCC(=O)NCC(=O)N[C@@H](C)C(=O)N[C@@H](CCC(N)=O)C(=O)N[C@@H](Cc1ccccc1)C(=O)N[C@@H](CO)C(=O)N[C@@H](CCCCN)C(=O)N[C@H](C(=O)N[C@@H](C)C(=O)N[C@@H](C)C(=O)N[C@@H](CCCCN)C(N)=O)[C@@H](C)O [myr-peptide 106-NH2] (Myristoyl-GAQFSKTAAK-NH2) | < 10000 µg/mL | 29.3 % control | – | half-life [2, 6]: 631 min; half-life [2, 7]: 769 min; Mucin Secretion % of control ([3]; peptide 10 μM): 67*+ % of control; Mucin Secretion % of control ([3]; peptide 100 μM): 17** % of control
CCCCCCCCCCCCCC(=O)NCC(=O)N[C@@H](CCCCN)C(=O)N[C@@H](CCC(N)=O)C(=O)N[C@@H](Cc1ccccc1)C(=O)N[C@@H](CO)C(=O)N[C@@H](CCCCN)C(=O)N[C@H](C(=O)N[C@@H](C)C(=O)N[C@@H](C)C(=O)N[C@@H](CCCCN)C(=O)NCC(=O)N[C@@H](CCC(=O)O)C(=O)O)[C@@H](C)O [myr-peptide 233] (Myristoyl-GKQFSKTAAKGE-OH) | > 3000 µg/mL | 21 % control | – | –
CCCCCCCCCCCCCC(=O)NCC(=O)N[C@@H](C)C(=O)N[C@@H](CCC(N)=O)C(=O)N[C@@H](Cc1ccccc1)C(=O)N[C@@H](CO)C(=O)N[C@@H](CCCCN)C(=O)N[C@H](C(=O)N[C@@H](C)C(=O)N[C@@H](C)C(=O)N[C@@H](CCCCN)C(=O)NCC(=O)N[C@@H](CCC(=O)O)C(=O)O)[C@@H](C)O [myr-peptide 79] (Myristoyl-GAQFSKTAAKGE-OH) | > 2000 µg/mL | 50 % control | 48 % control | –
CCCCCCCCCCCCCC(=O)NCC(=O)N[C@@H](C)C(=O)N[C@@H](CCC(N)=O)C(=O)N[C@@H](C)C(=O)N[C@@H](CO)C(=O)N[C@@H](CCCCN)C(=O)N[C@H](C(=O)N[C@@H](C)C(=O)N[C@@H](C)C(=O)N[C@@H](CCCCN)C(N)=O)[C@@H](C)O [myr-peptide 236-NH2] (Myristoyl-GAQASKTAAK-NH2) | < 10000 µg/mL | 51 % control | – | half-life [2, 6]: 250 min; half-life [2, 7]: 245 min
